Legend:
[1] = target: D(2) dopamine receptor (Rattus norvegicus, UniProt P61169); assay: Evaluated in vitro for the affinity towards Dopamine receptor D2 of rat striatal tissue
[2] = Maximum […] (Bmax) was determined.; assay type: ADME, organism-based; conditions: in vivo

Sequence of D(2) dopamine receptor (P61169 whole entry): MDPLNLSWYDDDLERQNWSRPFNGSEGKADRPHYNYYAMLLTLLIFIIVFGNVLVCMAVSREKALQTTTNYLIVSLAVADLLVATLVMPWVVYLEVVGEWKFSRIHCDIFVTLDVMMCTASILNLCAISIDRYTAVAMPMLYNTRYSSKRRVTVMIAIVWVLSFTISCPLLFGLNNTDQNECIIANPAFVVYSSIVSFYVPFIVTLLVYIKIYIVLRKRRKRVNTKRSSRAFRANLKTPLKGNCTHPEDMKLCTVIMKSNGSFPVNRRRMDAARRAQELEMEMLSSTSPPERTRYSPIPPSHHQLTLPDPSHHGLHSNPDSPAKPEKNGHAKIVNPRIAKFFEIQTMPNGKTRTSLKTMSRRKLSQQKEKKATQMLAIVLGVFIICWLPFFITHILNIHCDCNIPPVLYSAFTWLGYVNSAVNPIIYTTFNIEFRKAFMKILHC

Row | Kd [1] | SMILES | Bmax [2]
1 | 3 nM | CCN1CCC[C@H]1CNC(=O)c1cc(I)ccc1OC [IODOPRIDE] | 
2 | 1.5 nM | CCN1CCC[C@H]1CNC(=O)c1c(OC)ccc(S(N)(=O)=O)c1I [IODOSULPIRIDE] | 
3 | 0.43 nM | CCN1CCC[C@H]1CNC(=O)c1c(OC)ccc(I)c1O [IOLOPRIDE] | 

Row | SMILES | Kd [1] | Bmax [2]
4 | CN1CN(c2ccccc2)C2(CCN(CCCC(=O)c3ccc(F)cc3)CC2)C1=O [MESPIPERONE] | 0.097 nM | 16.6 pM/g
